PubChem BioAssay AID248 (DTP/NCI, 2004)
“And” between values parts separate entries of the source, which are not always exact repeats. Identical values can stand only once. Toxic doses and inconclusive results are not listed. No stated cut-off is given here; in the data, active means T/C of 150% or more; inactive means T/C below 125%.

Test system: L1210 leukemia ip in BDF1 mice, survival T/C
Assay: NCI In Vivo Anticancer Drug Screen. Data for tumor model L1210 Leukemia (intraperitoneal) in B6D2F1 (BDF1) mice
Details: endpoint: mean survival time, higher = longer survival
Procedure, shortened: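 Mice bearing the transplanted tumor received compound or vehicle. Survival of the treated group was divided by that of the vehicle-treated control group to give the ratio.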

[1] = dose: 100.0 mg/kg/injection, schedule: Q01DX009 (ip), vehicle: Klucel (hydroxypropylcellulose) (HPC)
[2] = dose: 100.0 mg/kg/injection, schedule: Q04DX003 (ip), vehicle: Klucel (hydroxypropylcellulose) (HPC)
[3] = dose: 200.0 mg/kg/injection, schedule: Q01DX009 (ip), vehicle: Klucel (hydroxypropylcellulose) (HPC)
[4] = dose: 200.0 mg/kg/injection, schedule: Q04DX003 (ip), vehicle: Klucel (hydroxypropylcellulose) (HPC)
[5] = dose: 400.0 mg/kg/injection, schedule: Q01DX009 (ip), vehicle: Klucel (hydroxypropylcellulose) (HPC)
[6] = dose: 400.0 mg/kg/injection, schedule: Q04DX003 (ip), vehicle: Klucel (hydroxypropylcellulose) (HPC)
[7] = dose: 100.0 mg/kg/injection, schedule: Q01DX009 (ip), vehicle: saline with Tween-80
[8] = dose: 200.0 mg/kg/injection, schedule: Q01DX009 (ip), vehicle: saline with Tween-80
[9] = dose: 400.0 mg/kg/injection, schedule: Q01DX009 (ip), vehicle: saline with Tween-80
[10] = dose: 50.0 mg/kg/injection, schedule: Q04DX003 (ip), vehicle: Klucel (hydroxypropylcellulose) (HPC)
[11] = dose: 100.0 mg/kg/injection, schedule: Q01DX001 (ip), vehicle: saline
[12] = dose: 100.0 mg/kg/injection, schedule: Q04DX003 (ip), vehicle: saline
[13] = dose: 200.0 mg/kg/injection, schedule: Q04DX003 (ip), vehicle: saline

Measured: T/C

Cc1ccc(C)c(NC(=O)c2ccccc2Cl)c1
inactive: [1] 115 % of control | [2] 102 % of control | [3] 120 % of control | [4] 100 % of control | [5] 120 % of control | [6] 97 % of control

Cc1ccc(C(=O)c2ccccc2C(=O)O)cc1C
inactive: [7] 90 % of control | dose: 100.0 mg/kg/injection, schedule: Q04DX002 (ip), vehicle: saline with Tween-80 93 % of control | [8] 93 % of control | dose: 200.0 mg/kg/injection, schedule: Q04DX002 (ip), vehicle: saline with Tween-80 114 % of control | [9] 87 % of control | dose: 400.0 mg/kg/injection, schedule: Q04DX002 (ip), vehicle: saline with Tween-80 101 % of control

N#CCN1C(=O)c2ccccc2C1=O
inactive: dose: 12.5 mg/kg/injection, schedule: Q01DX009 (ip), vehicle: Klucel (hydroxypropylcellulose) (HPC) 96 % of control | dose: 12.5 mg/kg/injection, schedule: Q04DX003 (ip), vehicle: Klucel (hydroxypropylcellulose) (HPC) 100 % of control | dose: 25.0 mg/kg/injection, schedule: Q01DX009 (ip), vehicle: Klucel (hydroxypropylcellulose) (HPC) 101 % of control | dose: 25.0 mg/kg/injection, schedule: Q04DX003 (ip), vehicle: Klucel (hydroxypropylcellulose) (HPC) 98 % of control | [10] 100 % of control | dose: 75.0 mg/kg/injection, schedule: Q01DX001 (ip), vehicle: other 107 % of control

c1ccc(C2CC3c4ccccc4C2c2cccc[n+]23)nc1 (configuration not stated)
inactive: dose: 100.0 mg/kg/injection, schedule: Q01DX001 (ip), vehicle: Klucel (hydroxypropylcellulose) (HPC) 101 % of control | dose: 200.0 mg/kg/injection, schedule: Q01DX001 (ip), vehicle: Klucel (hydroxypropylcellulose) (HPC) 107 % of control

CCCCCCCCCCCCCCCC(=O)NOCc1cscn1
inactive: dose: 100.0 mg/kg/injection, schedule: Q01DX001 (ip), vehicle: other 104 % of control | dose: 100.0 mg/kg/injection, schedule: Q04DX003 (ip), vehicle: acetone 93 % of control | dose: 200.0 mg/kg/injection, schedule: Q01DX001 (ip), vehicle: other 94 % of control | dose: 200.0 mg/kg/injection, schedule: Q04DX003 (ip), vehicle: acetone 93 % of control | dose: 400.0 mg/kg/injection, schedule: Q01DX001 (ip), vehicle: other 98 % of control | dose: 400.0 mg/kg/injection, schedule: Q04DX003 (ip), vehicle: acetone 98 % of control

C1=CC2C3CCC(C3)C2C1 (configuration not stated)
inactive: dose: 50.0 mg/kg/injection, schedule: Q01DX009 (ip), vehicle: saline with Tween-80 96 % of control | [7] 102 % of control and 88 % of control | dose: 100.0 mg/kg/injection, schedule: Q04DX003 (ip), vehicle: saline with Tween-80 98 % of control and 101 % of control | [8] 94 % of control and 108 % of control | dose: 200.0 mg/kg/injection, schedule: Q04DX003 (ip), vehicle: saline with Tween-80 93 % of control and 101 % of control | [9] 95 % of control | dose: 400.0 mg/kg/injection, schedule: Q04DX003 (ip), vehicle: saline with Tween-80 93 % of control and 96 % of control

COCC(=O)OCCCCCOC(=O)COC
inactive: [10] 104 % of control | [2] 102 % of control | [4] 96 % of control | [6] 88 % of control

CC1CC(=O)Oc2ccc(C(C)(C)C)cc21 (configuration not stated)
inactive: dose: 100.0 mg/kg/injection, schedule: Q01DX001 (ip), vehicle: saline with Tween-80 95 % of control | dose: 200.0 mg/kg/injection, schedule: Q01DX001 (ip), vehicle: saline with Tween-80 91 % of control | dose: 400.0 mg/kg/injection, schedule: Q01DX001 (ip), vehicle: saline with Tween-80 95 % of control

CCOC(=O)C(CC(C)C)NC(=O)C(Cc1ccc(N(CCCl)CCCl)cc1)NC(C)=O (configuration not stated)
inactive: dose: 1.0 mg/kg/injection, schedule: Q01DX009 (ip), vehicle: other 108 % of control | dose: 2.0 mg/kg/injection, schedule: Q01DX009 (ip), vehicle: other 108 % of control | dose: 4.0 mg/kg/injection, schedule: Q01DX009 (ip), vehicle: other 120 % of control | dose: 8.0 mg/kg/injection, schedule: Q01DX009 (ip), vehicle: other 119 % of control | dose: 16.0 mg/kg/injection, schedule: Q01DX009 (ip), vehicle: other 109 % of control | dose: 32.0 mg/kg/injection, schedule: Q01DX009 (ip), vehicle: other 116 % of control | dose: 62.5 mg/kg/injection, schedule: Q01DX001 (oral), vehicle: alcohol 102 % of control | dose: 66.0 mg/kg/injection, schedule: Q01DX001 (ip), vehicle: olive oil, sesame oil, peanut oil 108 % of control | dose: 100.0 mg/kg/injection, schedule: Q01DX001 (ip), vehicle: olive oil, sesame oil, peanut oil 110 % of control | dose: 125.0 mg/kg/injection, schedule: Q01DX001 (oral), vehicle: alcohol 101 % of control | dose: 250.0 mg/kg/injection, schedule: Q01DX001 (oral), vehicle: alcohol 104 % of control | dose: 250.0 mg/kg/injection, schedule: Q01DX001 (oral), vehicle: olive oil, sesame oil, peanut oil 113 % of control | dose: 500.0 mg/kg/injection, schedule: Q01DX001 (oral), vehicle: alcohol 113 % of control

COC1OC(COC(=O)c2ccccc2)C(OC(=O)c2ccccc2)C(OC(=O)c2ccccc2)C1OS(=O)(=O)c1ccc(C)cc1 (configuration not stated)
inactive: dose: 100.0 mg/kg/injection, schedule: Q04DX002 (ip), vehicle: Klucel (hydroxypropylcellulose) (HPC) 103 % of control | dose: 200.0 mg/kg/injection, schedule: Q04DX002 (ip), vehicle: Klucel (hydroxypropylcellulose) (HPC) 88 % of control | dose: 400.0 mg/kg/injection, schedule: Q04DX002 (ip), vehicle: Klucel (hydroxypropylcellulose) (HPC) 88 % of control

CCCCCCSCCO
inactive: [11] 94 % of control | dose: 200.0 mg/kg/injection, schedule: Q01DX001 (ip), vehicle: saline 94 % of control | dose: 400.0 mg/kg/injection, schedule: Q01DX001 (ip), vehicle: saline 93 % of control

Nc1cccc(CC(N)C(=O)O)c1 (configuration not stated)
inactive: [12] 100 % of control | [13] 93 % of control | dose: 400.0 mg/kg/injection, schedule: Q04DX003 (ip), vehicle: saline 100 % of control

NN1N=Nc2cccc3cccc1c23
inactive: dose: 50.0 mg/kg/injection, schedule: Q01DX009 (ip), vehicle: saline 96 % of control | dose: 100.0 mg/kg/injection, schedule: Q01DX009 (ip), vehicle: saline 107 % of control | [12] 92 % of control | dose: 200.0 mg/kg/injection, schedule: Q01DX009 (ip), vehicle: saline 88 % of control | [13] 91 % of control

C/C(=C1/SC(=S)NC1=O)c1ccccc1
inactive: [11] 102 % of control

COc1cc([N+](=O)[O-])ccc1NC(=O)Oc1ccc2ccccc2c1
inactive: [1] 98 % of control | [3] 96 % of control | [5] 100 % of control

Cc1nc(N)[nH]c(=O)c1CCCN=Cc1cccc([N+](=O)[O-])c1
inactive: dose: 12.5 mg/kg/injection, schedule: Q01DX001 (ip), vehicle: Klucel (hydroxypropylcellulose) (HPC) 110 % of control | dose: 25.0 mg/kg/injection, schedule: Q01DX001 (ip), vehicle: Klucel (hydroxypropylcellulose) (HPC) 103 % of control | dose: 50.0 mg/kg/injection, schedule: Q01DX001 (ip), vehicle: Klucel (hydroxypropylcellulose) (HPC) 97 % of control

CC1=NCCN=C(C)CC(C)(C)[N-]CC[N-]C(C)(C)C1.[Cl-].[Cl-].[Co+3].[O-][Cl+3]([O-])([O-])O
inactive: dose: 150.0 mg/kg/injection, schedule: Q04DX002 (ip), vehicle: Klucel (hydroxypropylcellulose) (HPC) 97 % of control | dose: 300.0 mg/kg/injection, schedule: Q04DX002 (ip), vehicle: Klucel (hydroxypropylcellulose) (HPC) 94 % of control

CCCCCCCC/C=C\CCCCCCCCN1CC(C(=O)[O][Pb]([CH2]C)([CH2]C)[CH2]C)CC1=O (configuration not stated)
inactive: dose: 1.5 mg/kg/injection, schedule: Q01DX009 (ip), vehicle: saline with Tween-80 100 % of control | dose: 3.0 mg/kg/injection, schedule: Q01DX009 (ip), vehicle: saline with Tween-80 101 % of control | dose: 6.0 mg/kg/injection, schedule: Q01DX009 (ip), vehicle: saline with Tween-80 100 % of control | dose: 6.25 mg/kg/injection, schedule: Q01DX009 (ip), vehicle: saline with Tween-80 94 % of control | dose: 12.5 mg/kg/injection, schedule: Q04DX002 (ip), vehicle: saline with Tween-80 108 % of control | dose: 25.0 mg/kg/injection, schedule: Q04DX002 (ip), vehicle: saline with Tween-80 105 % of control
